In brackets after ≈: the same amount, converted by molar mass.
What was measured:
Assay type in all cases: cell-based
[1] = test system: E. coli clinical isolates; experiment: MIC on panel of E. coli clinical isolates
E. coli ∆acrB JW0451-2 = experiment: MIC, E. coli ∆acrB; details: Escherichia coli, read-out: MIC acrB
Experimental: The inoculum used for all the experiments is derived from a single seed lot that is maintained as glycerol stocks at −80 °C and are sub cultured on LB plate for isolated colonies. Single colony of each strain is grown in M9 medium. All test compound stocks and dilutions are prepared in DMSO. Serial two-fold dilutions of compounds are prepared separately, with the concentrations ranging from 2 mg/mL to 0.015 mg/mL. To 150 µl (3–7 × 10^5 CFU/ml) of bacterial culture in 96 well microtitre plates, 3 μL compound from each of the dilutions is added to respective wells to obtain final concentrations ranging from 40 µg/mL to 0.3 µg/mL of the test compounds. Media control, culture control and appropriate reference drug controls are included. […] Growth is monitored by checking absorbance at 600 nm (A600). […] The samples from MIC and above concentrations are plated for MBC (Minimum Bactericidal Concentration). The samples are diluted 1:10 and plated on LB agar plates. […] The killing kinetics is determined by enumerating survivors at various time points following compound exposure. E. coli cells (~10^7 CFU/ml; A600 of 0.1) are treated with various concentrations (40 µg/mL to 0.3 µg/mL) of compounds in a 96-well microtitre plate. At various time intervals (0 to 8 h), 30 μl volumes of treated cultures are serially diluted and plated on LB agar plates. […] Data is expressed as the log10 CFU for each drug treatment.

[2] = target: T1, AcrB efflux pump in E. coli BW25113 (Escherichia coli, UniProt P31224); experiment: Nile red efflux assay (whole-cell competition)
T1 construct: endogenous in cells; host or cells: E. coli BW25113 (wild type)
T1 sequence (P0AE06 25-397): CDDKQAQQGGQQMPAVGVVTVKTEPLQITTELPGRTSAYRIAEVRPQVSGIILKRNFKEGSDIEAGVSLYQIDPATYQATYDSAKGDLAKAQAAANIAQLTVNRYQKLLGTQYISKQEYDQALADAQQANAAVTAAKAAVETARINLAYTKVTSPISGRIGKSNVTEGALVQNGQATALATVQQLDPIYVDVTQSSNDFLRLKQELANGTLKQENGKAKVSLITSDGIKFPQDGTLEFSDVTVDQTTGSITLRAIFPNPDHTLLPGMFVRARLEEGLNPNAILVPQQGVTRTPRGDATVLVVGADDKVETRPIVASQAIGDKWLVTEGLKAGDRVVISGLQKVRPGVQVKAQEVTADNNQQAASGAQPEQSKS
T1 sequence (P31224 whole entry): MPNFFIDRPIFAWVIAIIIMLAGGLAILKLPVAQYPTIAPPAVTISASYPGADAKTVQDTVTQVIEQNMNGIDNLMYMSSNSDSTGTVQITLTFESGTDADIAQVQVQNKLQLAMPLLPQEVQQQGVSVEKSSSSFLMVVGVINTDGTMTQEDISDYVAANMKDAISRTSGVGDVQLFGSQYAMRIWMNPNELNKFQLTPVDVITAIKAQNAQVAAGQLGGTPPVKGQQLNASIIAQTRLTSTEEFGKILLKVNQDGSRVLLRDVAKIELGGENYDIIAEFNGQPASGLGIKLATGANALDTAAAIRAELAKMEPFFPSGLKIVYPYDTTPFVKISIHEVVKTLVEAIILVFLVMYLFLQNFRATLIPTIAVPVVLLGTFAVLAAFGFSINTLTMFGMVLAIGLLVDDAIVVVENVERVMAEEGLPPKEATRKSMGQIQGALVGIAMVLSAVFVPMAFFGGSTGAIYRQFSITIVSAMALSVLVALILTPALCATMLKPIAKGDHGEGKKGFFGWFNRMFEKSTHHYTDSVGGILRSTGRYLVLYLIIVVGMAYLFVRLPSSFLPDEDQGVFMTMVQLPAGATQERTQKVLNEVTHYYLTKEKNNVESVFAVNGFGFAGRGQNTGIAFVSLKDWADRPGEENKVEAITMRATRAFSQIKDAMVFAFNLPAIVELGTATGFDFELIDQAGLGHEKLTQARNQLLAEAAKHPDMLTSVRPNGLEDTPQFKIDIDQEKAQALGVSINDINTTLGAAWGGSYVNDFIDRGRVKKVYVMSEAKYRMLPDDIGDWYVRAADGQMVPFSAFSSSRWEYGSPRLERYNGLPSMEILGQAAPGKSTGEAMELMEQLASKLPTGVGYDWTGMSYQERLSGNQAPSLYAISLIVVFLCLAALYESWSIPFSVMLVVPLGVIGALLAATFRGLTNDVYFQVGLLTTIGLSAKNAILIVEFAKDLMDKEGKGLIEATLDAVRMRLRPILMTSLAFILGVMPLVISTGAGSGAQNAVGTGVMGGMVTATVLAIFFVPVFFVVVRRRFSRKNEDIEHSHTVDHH
T1 sequence (P02930 23-493, further chain): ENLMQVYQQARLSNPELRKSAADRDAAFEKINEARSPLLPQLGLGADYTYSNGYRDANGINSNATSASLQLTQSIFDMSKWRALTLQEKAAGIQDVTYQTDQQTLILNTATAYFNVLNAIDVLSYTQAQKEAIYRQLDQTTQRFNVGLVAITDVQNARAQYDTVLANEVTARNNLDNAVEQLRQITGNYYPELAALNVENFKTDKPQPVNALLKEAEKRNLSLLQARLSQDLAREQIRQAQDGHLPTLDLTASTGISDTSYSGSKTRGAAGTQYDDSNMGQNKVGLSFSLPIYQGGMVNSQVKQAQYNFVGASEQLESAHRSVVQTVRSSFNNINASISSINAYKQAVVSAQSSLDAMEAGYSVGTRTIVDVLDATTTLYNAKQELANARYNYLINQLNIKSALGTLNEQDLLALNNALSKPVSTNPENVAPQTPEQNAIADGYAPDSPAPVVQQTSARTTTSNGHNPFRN
Experimental: The Nile red assay is adopted from Bohnert et al.[18]. An overnight culture of E. coli strain BW25113 is harvested and is resuspended in 20 mM potassium phosphate buffer (pH 7.0) containing 1 mM MgCl2 (PPB). The cells are adjusted to an A660 of 1.0 in PPB and aliquoted into glass tubes (2 ml each). Carbonylcyanide-m-chlorophenylhydrazone (CCCP; a protonophore that uncouples the electron transport chain and thus inhibits AcrB mediated efflux) is added to a final concentration of 10 µM (5 mM stock solution in 50% DMSO) and incubated for 15 minutes before adding the potential competitor at desired concentrations. Nile red is then added (stock solution of 5 mM in 10% dimethyl formamide-90% ethanol [vol/vol]) to a final concentration of 5 µM. The cell suspension is incubated at room temperature on a shaker for 3 hours. The cells are harvested and resuspended in 2 ml PPB in the presence of the competitor. The cell suspension is aliquoted in a fluorimeter cuvette, to which, 100 µl of 1 M Glucose is added to activate the electron transport chain. The rate of efflux is measured by Tefflux50, it is the time taken for 50% of Nile red to be effluxed out in presence of the compounds. The fluorescence is measured (Excitation 552 nm, Emission 636 nm) for 200 seconds.

Compound: O=C1CN(/N=C/c2ccc([N+](=O)[O-])o2)C(=O)N1 [nitrofurantoin, reference compound]
- MIC Range ([1]; 75 E.coli clinical isolates): 5 to 160 µg/mL
- MIC50 ([1]; Escherichia coli, 75 E.coli clinical isolates, 50% clinical isolates): 20 µg/mL (≈ 84 µM)
- MIC90 ([1]; Escherichia coli, 75 E.coli clinical isolates, 90% clinical isolates): 80 µg/mL (≈ 336 µM)
- MIC ([1]; strain SEC001): 80 µg/mL (≈ 336 µM)
- MIC ([1]; strain SEC002): 20 µg/mL (≈ 84 µM)
- MIC ([1]; strain SEC003): 40 µg/mL (≈ 168 µM)
- MIC ([1]; strain SEC004): 80 µg/mL (≈ 336 µM)
- MIC ([1]; strain SEC005): 40 µg/mL (≈ 168 µM)
- MIC ([1]; strain SEC006): 20 µg/mL (≈ 84 µM)
- MIC ([1]; strain SEC007): 40 µg/mL (≈ 168 µM)
- MIC ([1]; strain SEC008): 80 µg/mL (≈ 336 µM)
- MIC ([1]; strain SEC011): 40 µg/mL (≈ 168 µM)
- MIC ([1]; strain SEC012): 20 µg/mL (≈ 84 µM)
- MIC ([1]; strain SEC013): 80 µg/mL (≈ 336 µM)
- MIC ([1]; strain SEC014): 20 µg/mL (≈ 84 µM)
- MIC ([1]; strain SEC015): 20 µg/mL (≈ 84 µM)
- MIC ([1]; strain SEC016): 40 µg/mL (≈ 168 µM)
- MIC ([1]; strain SEC017): 20 µg/mL (≈ 84 µM)
- MIC ([1]; strain SEC018): 20 µg/mL (≈ 84 µM)
- MIC ([1]; strain SEC019): 40 µg/mL (≈ 168 µM)
- MIC ([1]; strain SEC020): 160 µg/mL (≈ 672 µM)
- MIC ([1]; strain SEC021): 20 µg/mL (≈ 84 µM)
- MIC ([1]; strain SEC022): 20 µg/mL (≈ 84 µM)
- MIC ([1]; strain SEC023): 80 µg/mL (≈ 336 µM)
- MIC ([1]; strain SEC024): 20 µg/mL (≈ 84 µM)
- MIC ([1]; strain SEC025): 40 µg/mL (≈ 168 µM)
- MIC ([1]; strain SEC026): 20 µg/mL (≈ 84 µM)
- MIC ([1]; strain SEC028): 5 µg/mL (≈ 21 µM)
- MIC ([1]; strain SEC029): 20 µg/mL (≈ 84 µM)
- MIC ([1]; strain SEC031): 20 µg/mL (≈ 84 µM)
- MIC ([1]; strain SEC032): 20 µg/mL (≈ 84 µM)
- MIC ([1]; strain SEC033): 20 µg/mL (≈ 84 µM)
- MIC ([1]; strain SEC034): 20 µg/mL (≈ 84 µM)
- MIC ([1]; strain SEC035): 40 µg/mL (≈ 168 µM)
- MIC ([1]; strain SEC036): 40 µg/mL (≈ 168 µM)
- MIC ([1]; strain SEC037): 20 µg/mL (≈ 84 µM)
- MIC ([1]; strain SEC038): 20 µg/mL (≈ 84 µM)
- MIC ([1]; strain SEC039): 20 µg/mL (≈ 84 µM)
- MIC ([1]; strain SEC040): 40 µg/mL (≈ 168 µM)
- MIC ([1]; strain SEC041): 20 µg/mL (≈ 84 µM)
- MIC ([1]; strain SEC042): 10 µg/mL (≈ 42 µM)
- MIC ([1]; strain SEC043): 20 µg/mL (≈ 84 µM)
- MIC ([1]; strain SEC044): 80 µg/mL (≈ 336 µM)
- MIC ([1]; strain SEC045): 20 µg/mL (≈ 84 µM)
- MIC ([1]; strain SEC046): 20 µg/mL (≈ 84 µM)
- MIC ([1]; strain SEC047): 40 µg/mL (≈ 168 µM)
- MIC ([1]; strain SEC048): 40 µg/mL (≈ 168 µM)
- MIC ([1]; strain SEC049): 40 µg/mL (≈ 168 µM)
- MIC ([1]; strain SEC050): 20 µg/mL (≈ 84 µM)
- MIC ([1]; strain SEC051): 40 µg/mL (≈ 168 µM)
- MIC ([1]; strain SEC052): 160 µg/mL (≈ 672 µM)
- MIC ([1]; strain SEC053): 40 µg/mL (≈ 168 µM)
- MIC ([1]; strain SEC054): 20 µg/mL (≈ 84 µM)
- MIC ([1]; strain SEC055): 20 µg/mL (≈ 84 µM)
- MIC ([1]; strain SEC057): 40 µg/mL (≈ 168 µM)
- MIC ([1]; strain SEC058): 80 µg/mL (≈ 336 µM)
- MIC ([1]; strain SEC059): 20 µg/mL (≈ 84 µM)
- MIC ([1]; strain SEC060): 20 µg/mL (≈ 84 µM)
- MIC ([1]; strain SEC061): 40 µg/mL (≈ 168 µM)
- MIC ([1]; strain SEC062): 20 µg/mL (≈ 84 µM)
- MIC ([1]; strain SEC063): 40 µg/mL (≈ 168 µM)
- MIC ([1]; strain SEC064): 40 µg/mL (≈ 168 µM)
- MIC ([1]; strain SEC065): 20 µg/mL (≈ 84 µM)
- MIC ([1]; strain SEC067): 20 µg/mL (≈ 84 µM)
- MIC ([1]; strain SEC068): 20 µg/mL (≈ 84 µM)
- MIC ([1]; strain SEC069): 20 µg/mL (≈ 84 µM)
- MIC ([1]; strain SEC070): 20 µg/mL (≈ 84 µM)
- MIC ([1]; strain SEC071): 20 µg/mL (≈ 84 µM)
- MIC ([1]; strain SEC072): 20 µg/mL (≈ 84 µM)
- MIC ([1]; strain SEC073): 40 µg/mL (≈ 168 µM)
- MIC ([1]; strain SEC074): 40 µg/mL (≈ 168 µM)
- MIC ([1]; strain SEC075): 10 µg/mL (≈ 42 µM)
- MIC ([1]; strain SEC076): 20 µg/mL (≈ 84 µM)
- MIC ([1]; strain SEC077): 80 µg/mL (≈ 336 µM)
- MIC ([1]; strain SEC078): 80 µg/mL (≈ 336 µM)
- MIC ([1]; strain SEC079): 20 µg/mL (≈ 84 µM)
- MIC ([1]; strain SEC080): 40 µg/mL (≈ 168 µM)

Compound: Cc1sc(NC(=O)c2ccc([N+](=O)[O-])s2)nc1-c1ccccc1 [compound 7, N-(5-Methyl-4-phenylthiazol-2-yl)-5-nitrothiophene-2-carboxamide]
- MIC (E. coli ∆acrB JW0451-2): 1.25 µg/mL (≈ 3.62 µM)
- Tefflux50 ([2]; 1µM compound, time for 50% of Nile red to be effluxed, read for 200 seconds): 88.05 s
- Tefflux50 ([2]; 9µM compound): 200 s
- Tefflux50 ([2]; 27µM compound): 200 s
- Tefflux50 ([2]; 81µM compound): 200 s
- Tefflux50 ([2]; 100µM compound): 200 s
- Tefflux50 ([2]; 200µM compound): 200 s
- Tefflux50 ([2]; 400µM compound): 200 s
- Concentration of compound required for complete inhibition of Nile red efflux (Tefflux50 >200 seconds) ([2]; E. coli BW25113): 9 µM

From PMC5940854, “Nitrothiophene carboxamides, a novel narrow spectrum antibacterial series: Mechanism of action and Efficacy” (Scientific Reports, 2018)
